Key:
[1] = pharmacokinetics in monkey; conditions: in vivo, po
Excerpt: (§1) Exposure increased more than dose-proportionally at low doses. Variability in exposure was high. • In vitro plasma protein binding was between 79.6% and 94.2% in animals and humans. Volume of distribution after intravenous dosing was high. […] Main metabolic pathways were oxygenation, hydrogenation, dehydrogenation, dealkylation, acetylation, glucuronidation, and/or glutathione conjugation. • In rats, >80% of drug-related material was found in feces, 11% to 20% in bile, and <4% in urine. […] There were no effects on embryofetal development up to 1 mg/kg/dose in rats and 30 mg/kg/dose in rabbits.

[2] = pharmacokinetics and metabolism in animals; format: in vivo, rats and monkeys
Excerpt: as §1

[3] = tested on: cytokines and ISGs (ISG15, MX1, OAS1); assay: Phase 1 single oral dose pharmacodynamics (serum cytokines, whole blood ISGs) in healthy adults; format: in vivo, human
Procedure: IFN-α was assessed by an enzyme-linked immunosorbent assay; 13 other cytokines (granulocyte colony stimulating factor [GCSF], granulocyte macrophage colony stimulating factor [GMCSF], IFN-γ, IFN-γ-induced protein 10 [IP-10], interleukin [IL] 1β, IL-1 receptor antagonist [IL-1 RA], IL-10, IL-12 subunit P40, IL-6, IL-8, macrophage inflammatory protein 1β [MIP-1β], monocyte chemotactic protein 1 [MCP-1], and tumour necrosis factor [TNF]) were analysed by the appropriate Luminex assays. ISG expression analysis was conducted for three genes, ISG15, MX1 and OAS1 using quantitative polymerase chain reaction. Descriptive statistics were used to summarise PD parameters over time, and relative fold-changes from baseline values were calculated. Serum levels of IFN-α were measured by ELISA. Serum levels of IP-10, IFN-γ, TNF-α, IL-12 (subunit P40), IL-6, IL-1β, IL-1RA, IL-18, MCP-1, MIP-1β, G-CSF, GM-CSF, IL-10, IL-15 were measured by Luminex xMAP technology. The LLOQ for IFN-α was determined at 12.5 pg/mL and at 25 pg/mL for all other cytokines measured. Fold changes for each of the cytokines were calculated compared to predose values or LLOQ-1 values if predose values were below LLOQ. IFN-stimulated gene (ISG) expression analysis was conducted for 3 genes, ISG15, MX1, and OAS1, using quantitative polymerase chain reaction (qPCR) on collected whole blood samples. For the ISGs, relative fold changes from baseline were calculated according to the delta delta Cycle threshold (Ct) method (2^[Delta Delta Ct]). Assessments were done for Part 1 predose and postdose: 1.5 hours, 6 hours, 12 hours (Day 1), 24 hours (day 2), 48 hours (Day 3), 96 hours (Day 5), follow-up Week 2. For the Part 2, assessments were done predose and post the first and fourth dose: 2 hours, 4 hours, 12 hours, 24 hours, 48 hours, 96 hours and one week follow-up; and post the second and third doses: 12 hours and 48 hours.

[4] = single dose 0.6 mg, 12 hours post dosing

Structure (SMILES): CCCCOc1nc(N)c2[nH]cc(Cc3ccc(CN4CCCC4)cc3)c2n1 [Compound 4]
- bioavailability [1]: 1.5%
- blood clearance ([2]; in vivo): moderate
- volume of distribution ([2]; intravenous dosing): high
- tissue distribution ([2]; oral dosing in rats and monkeys): highest levels in liver, small intestines and brain
- half-life ([2]; rat, monkey, in vivo): 5 to 14 h
- Tmax ([2]; rat, monkey, in vivo, oral dosing): 0.8 to 2 h
- number of the 14 cytokines evaluated that increased ≥2-fold versus baseline (IFN-α, IP-10, IL-1 RA, MCP-1, IL-6) ([3]; single dose): 5
- time within which cytokine levels and ISG expression peaked ([3]; single dose): 12 to 24 h
- induction of ISGs or cytokines ([3]; single dose 0.2 mg): No relevant induction of ISGs or cytokines
- participants with ≥2 relative fold increase in ISG15 expression from baseline in the first 96 hours ([3]; single dose 0.2 mg fasted): 0 n (%)
- participants with ≥2 relative fold increase in MX1 expression from baseline in the first 96 hours ([3]; single dose 0.2 mg fasted): 1 (20.0%) n (%)
- participants with ≥2 relative fold increase in OAS1 expression from baseline in the first 96 hours ([3]; single dose 0.2 mg fasted): 0 n (%)
- subjects with ≥2-fold change from baseline in GCSF within 96 hours ([3]; single dose 0.2 mg fasted): 0 n (%)
- subjects with ≥2-fold change from baseline in GMCSF within 96 hours ([3]; single dose 0.2 mg fasted): 0 n (%)
- subjects with ≥2-fold change from baseline in IFN-α within 96 hours ([3]; single dose 0.2 mg fasted): 0 n (%)
- subjects with ≥2-fold change from baseline in IFN-γ within 96 hours ([3]; single dose 0.2 mg fasted): 0 n (%)
- subjects with ≥2-fold change from baseline in IL-1RA within 96 hours ([3]; single dose 0.2 mg fasted): 0 n (%)
- subjects with ≥2-fold change from baseline in IL-1β within 96 hours ([3]; single dose 0.2 mg fasted): 0 n (%)
- subjects with ≥2-fold change from baseline in IL-6 within 96 hours ([3]; single dose 0.2 mg fasted): 1 (20.0%) n (%)
- subjects with ≥2-fold change from baseline in IL-8 within 96 hours ([3]; single dose 0.2 mg fasted): 0 n (%)
- subjects with ≥2-fold change from baseline in IL-10 within 96 hours ([3]; single dose 0.2 mg fasted): 0 n (%)
- subjects with ≥2-fold change from baseline in IL-12 subunit P40 within 96 hours ([3]; single dose 0.2 mg fasted): 0 n (%)
- subjects with ≥2-fold change from baseline in IP-10 within 96 hours ([3]; single dose 0.2 mg fasted): 0 n (%)
- subjects with ≥2-fold change from baseline in MCP-1 within 96 hours ([3]; single dose 0.2 mg fasted): 0 n (%)
- subjects with ≥2-fold change from baseline in MIP-1β within 96 hours ([3]; single dose 0.2 mg fasted): 0 n (%)
- subjects with ≥2-fold change from baseline in TNF-α within 96 hours ([3]; single dose 0.2 mg fasted): 0 n (%)
- treated subjects with ≥2-fold increase from baseline for all 3 ISGs within the first 96 hours ([3]; single dose 0.6 mg): Five of 6
- participants with ≥2 relative fold increase in ISG15 expression from baseline in the first 96 hours ([3]; single dose 0.6 mg fasted): 5 (83.3%) n (%)
- participants with ≥2 relative fold increase in MX1 expression from baseline in the first 96 hours ([3]; single dose 0.6 mg fasted): 5 (83.3%) n (%)
- participants with ≥2 relative fold increase in OAS1 expression from baseline in the first 96 hours ([3]; single dose 0.6 mg fasted): 5 (83.3%) n (%)
- subjects with ≥2-fold change from baseline in GCSF within 96 hours ([3]; single dose 0.6 mg fasted): 1 (16.7%) n (%)
- subjects with ≥2-fold change from baseline in GMCSF within 96 hours ([3]; single dose 0.6 mg fasted): 0 n (%)
- subjects with ≥2-fold change from baseline in IFN-α within 96 hours ([3]; single dose 0.6 mg fasted): 0 n (%)
- subjects with ≥2-fold change from baseline in IFN-γ within 96 hours ([3]; single dose 0.6 mg fasted): 0 n (%)
- subjects with ≥2-fold change from baseline in IL-1RA within 96 hours ([3]; single dose 0.6 mg fasted): 0 n (%)
- subjects with ≥2-fold change from baseline in IL-1β within 96 hours ([3]; single dose 0.6 mg fasted): 0 n (%)
- subjects with ≥2-fold change from baseline in IL-6 within 96 hours ([3]; single dose 0.6 mg fasted): 0 n (%)
- subjects with ≥2-fold change from baseline in IL-8 within 96 hours ([3]; single dose 0.6 mg fasted): 0 n (%)
- subjects with ≥2-fold change from baseline in IL-10 within 96 hours ([3]; single dose 0.6 mg fasted): 0 n (%)
- subjects with ≥2-fold change from baseline in IL-12 subunit P40 within 96 hours ([3]; single dose 0.6 mg fasted): 0 n (%)
- subjects with ≥2-fold change from baseline in MIP-1β within 96 hours ([3]; single dose 0.6 mg fasted): 0 n (%)
- subjects with ≥2-fold change from baseline in TNF-α within 96 hours ([3]; single dose 0.6 mg fasted): 0 n (%)
- maximum concentration of IP-10 [3, 4]: 1,322.0 pg/mL
- maximum concentration of MCP-1 [3, 4]: 878.2 pg/mL
- increased expression of cytokines and ISGs, fed versus fasted state ([3]; single dose 1.25 mg): less frequently observed in the 1.25 mg fed state than in the fasted state
- treated subjects with ≥2-fold increase from baseline for all 3 ISGs within the first 96 hours ([3]; single dose 1.25 mg): all treated subjects
- participants with ≥2 relative fold increase in ISG15 expression from baseline in the first 96 hours ([3]; single dose 1.25 mg fasted): 8 (100%) n (%)
- participants with ≥2 relative fold increase in MX1 expression from baseline in the first 96 hours ([3]; single dose 1.25 mg fasted): 8 (100%) n (%)
- participants with ≥2 relative fold increase in OAS1 expression from baseline in the first 96 hours ([3]; single dose 1.25 mg fasted): 8 (100%) n (%)
- subjects with IFN-α levels 100 pg/mL coinciding with flu-like AEs and low lymphocytes ([3]; single dose 1.25 mg fasted): 3 of 8
- subjects with ≥2-fold change from baseline in GCSF within 96 hours ([3]; single dose 1.25 mg fasted): 1 (12.5%) n (%)
- subjects with ≥2-fold change from baseline in GMCSF within 96 hours ([3]; single dose 1.25 mg fasted): 0 n (%)
- subjects with ≥2-fold change from baseline in IFN-γ within 96 hours ([3]; single dose 1.25 mg fasted): 2 (25.0%) n (%)
- subjects with ≥2-fold change from baseline in IL-1β within 96 hours ([3]; single dose 1.25 mg fasted): 0 n (%)
- subjects with ≥2-fold change from baseline in IL-6 within 96 hours ([3]; single dose 1.25 mg fasted): 1 (12.5%) n (%)
- subjects with ≥2-fold change from baseline in IL-8 within 96 hours ([3]; single dose 1.25 mg fasted): 0 n (%)
- subjects with ≥2-fold change from baseline in IL-10 within 96 hours ([3]; single dose 1.25 mg fasted): 0 n (%)
- subjects with ≥2-fold change from baseline in IL-12 subunit P40 within 96 hours ([3]; single dose 1.25 mg fasted): 0 n (%)
- subjects with ≥2-fold change from baseline in MIP-1β within 96 hours ([3]; single dose 1.25 mg fasted): 0 n (%)
- subjects with ≥2-fold change from baseline in TNF-α within 96 hours ([3]; single dose 1.25 mg fasted): 0 n (%)
- treated females with 2-fold increase in IFN-α ([3]; single dose 1.25 mg fasted): 2 of the 3
- treated male subjects with 2-fold increase in IFN-α ([3]; single dose 1.25 mg fasted): 2 out of 5
- IFNα levels in subjects with increase, range ([3]; single dose 1.25 mg fasted, 4/8 subjects): 63 to 533 pg/mL
- increase in IFN-α in the fed state among the 3 subjects with increase in the fasted state ([3]; single dose 1.25 mg fed): none showed an increase in IFN-α in the fed state
- treated male subjects with ≥2-fold increase in IFN-α ([3]; single dose 1.8 mg): 1 of the 5
- treated subjects with ≥2-fold increase from baseline for all 3 ISGs within the first 96 hours ([3]; single dose 1.8 mg): all treated subjects
- participants with ≥2 relative fold increase in ISG15 expression from baseline in the first 96 hours ([3]; single dose 1.8 mg fasted): 6 (100%) n (%)
- participants with ≥2 relative fold increase in MX1 expression from baseline in the first 96 hours ([3]; single dose 1.8 mg fasted): 6 (100%) n (%)
- participants with ≥2 relative fold increase in OAS1 expression from baseline in the first 96 hours ([3]; single dose 1.8 mg fasted): 6 (100%) n (%)
- subjects with IFN-α levels 100 pg/mL coinciding with flu-like AEs and low lymphocytes ([3]; single dose 1.8 mg fasted): 2 of 6
- subjects with ≥2-fold change from baseline in GCSF within 96 hours ([3]; single dose 1.8 mg fasted): 0 n (%)
- subjects with ≥2-fold change from baseline in GMCSF within 96 hours ([3]; single dose 1.8 mg fasted): 0 n (%)
- subjects with ≥2-fold change from baseline in IFN-γ within 96 hours ([3]; single dose 1.8 mg fasted): 2 (33.3%) n (%)
- subjects with ≥2-fold change from baseline in IL-1β within 96 hours ([3]; single dose 1.8 mg fasted): 0 n (%)
- subjects with ≥2-fold change from baseline in IL-6 within 96 hours ([3]; single dose 1.8 mg fasted): 1 (16.7%) n (%)
- subjects with ≥2-fold change from baseline in IL-8 within 96 hours ([3]; single dose 1.8 mg fasted): 0 n (%)
- subjects with ≥2-fold change from baseline in IL-10 within 96 hours ([3]; single dose 1.8 mg fasted): 0 n (%)
- subjects with ≥2-fold change from baseline in IL-12 subunit P40 within 96 hours ([3]; single dose 1.8 mg fasted): 0 n (%)
- subjects with ≥2-fold change from baseline in MIP-1β within 96 hours ([3]; single dose 1.8 mg fasted): 0 n (%)
- subjects with ≥2-fold change from baseline in TNF-α within 96 hours ([3]; single dose 1.8 mg fasted): 0 n (%)
- time within which cytokine levels and ISG expression returned to baseline ([3]; single dose, post-administration): 48 to 96 h
- time of return to baseline after dosing ([3]; two highest fasted dose groups): approximately 96 hours

From patent US12263172B2, “Toll-like receptor agonists for use in the treatment of hepatitis b” (priority 2019, dated 2025)
